Measurements published in patent US5985893A, “Physically stable solid form of a fluoroquinolone” (Pharmacia & Upjohn Company, priority 1996, dated 1999).
Several values for one entry are separate records, joined by “and”; a condition that tells them apart may be missing. Equal values may be shown once.

Assay: DSC and thermomicroscopy of solid-state transformations
Type: physicochemical
Description: A Nikon POH-2 polarized light compound microscope with 10× objective is employed to view specimens mounted dry between a glass microscope slide and a no. 11/2 Cover slip. The samples are heated from ambient through 250° C. in a Mettler FP-80 microfurnace controlled by a Mettler FP-8 microprocessor. The heating rates may vary from 5-20° C./minute. The hot-stage experiments may be videotaped (Sony T120-HG and PM VHS tape) with a Hitachi VK-C350 Color Video Camera and a Panasonic AG-6200 Video Cassette Recorder.
Differential scanning calorimetry (DSC) is used to monitor enthalpy changes as a function of temperature during a linear temperature increase. A DuPont 910 DSC interfaced to a TA Instruments TA2100 computer may be used. The scan rate is 5° C./minute, and the instrument is operated with a 50-80 cc/min dry nitrogen purge. Samples are encapsulated in hermetically sealed aluminum sample pans with a pressure rating of about 2 bar. In some experiments, the lids of the pans are perforated to permit the passage of moisture and other volatile components.
Because calorimetric samples are occasionally affected by residual moisture, samples are sometimes studied with different initial water activities. Samples are weighed into tared DSC pans, and the open pans are permitted to equilibrate for several days in chambers of constant relative humidity at 25±1° C. These chambers are prepared from saturated salt solutions at 53% RH and 75% RH. At the end of the equilibration period, the chambers are opened, and the lids are placed over the samples to prevent re-equilibration with the ambient atmosphere. The samples are removed from the chambers, and the pans are quickly crimped closed.
Detailed description of FIG. 8. […] The heating rate is 5° C./minute. (a.) The sample is encapsulated in a standard DSC pan. (b.) The sample is encapsulated in a hermetically sealed DSC pan. The profiles are offset along the ordinate axis for comparison.
Detailed description of FIG. 10. […] The heating rate was 5° C./minute. (a.) The sample was equilibrated at 53% RH and encapsulated in a standard DSC pan. (b.)The sample was equilibrated at 53% RH and encapsulated in a hermetically sealed DSC pan. (c.) The sample was equilibrated at 75% RH and encapsulated in a hermetically sealed DSC pan. The profiles were offset along the ordinate axis for comparison.

- DSC first merged endotherm/exotherm (melt/recrystallization) (FIG. 8, 5° C./minute): 140-150 °C
- DSC second merged endotherm/exotherm (melt/recrystallization) (FIG. 8, 5° C./minute): 165-180 °C
- DSC melt/recrystallization range, probably direct Form I to Form III (equilibrated at 53% RH, hermetically sealed pan): 140-150 °C
- DSC exotherm prior to Form III melt (equilibrated at 75% RH, hermetically sealed pan): about 130 °C
- Temperature of Form I to Form II transformation (slow heating/ thermomicroscopy melt/recrystallization): 140-151 °C and 143-151 °C
SMILES: CN[C@@H](C)[C@@H]1CCN(c2c(F)cc3c(=O)c(C(=O)O)cn(C4CC4)c3c2OC)C1 [Form I, [S-(R*,S*)]-1-cyclopropyl-6-fluoro-1,4-dihydro-8-methoxy-7-[3-[1-(methylamino)ethyl]-1-pyrrolidinyl]-4-oxo-3-quinolinecarboxylic acid]
